Broadly, the IC50 is the concentration needed to halve the response being measured. Broadly, the EC50 is the concentration at which the effect is half-maximal. A high value points to a need for much substance.

These results are taken from patent US20140235643A1, “NOVEL QUINOXALINE INHIBITORS OF PI3K” (GILEAD CALISTOGA LLC, priority 2011, published 2014).

For one test, the target named is T1, PI3Kγ (p110 gamma) (Homo sapiens, UniProt P48736).
T1 construct: purchased Invitrogen
The experiment in a line: PI3K biochemical enzyme assay (Adapta universal kinase assay), p110 gamma. To be noted: for IC50: Table 2, PI3k biochemical assays, read-out: p120γ IC50. As to the method:
This example describes a method of obtaining in vitro activity data concerning the effect of compounds of on various PI3K isoforms. The effect of compounds on the kinase activity of Class I PI3Ks was measured at Invitrogen by using the Adapta® universal kinase assay. It was a homogenous, fluorescent based immunoassay for the detection of ADP produced by the kinase reaction. This assay can be divided into two phases: a kinase reaction phase, and an ADP detection phase. In the kinase reaction phase, all components required for the kinase reaction were added to the well, and the reaction was allowed to incubate for 60 minutes. After the reaction, a detection solution consisting of a europium labeled anti-ADP antibody, an Alexa Fluor® 647 labeled ADP tracer, and EDTA (to stop the kinase reaction) was added to the assay well. ADP formed by the kinase reaction (in the absence of an inhibitor) displaced the Alexa Fluor® 647 labeled ADP tracer from the antibody, resulting in a decrease in the TR-FRET signal.
ADP formation was determined by calculating the emission ratio from the assay well. The emission ratio was calculated by dividing the intensity of the tracer (acceptor) emission by the intensity of the Eu (donor) emission at 615 nm as shown in the equation below.
The Test Compounds were screened in 1% DMSO (final) in the well. All Substrate/Kinase Mixtures were diluted to a 2× working concentration in the appropriate Kinase Buffer as described below for the individual kinase:
The 2× p110 gamma/PIP2:PS mixture was prepared in 50 mM HEPES pH 7.5, 1 mM EGTA, 3 mM mgCl2. The final […] Kinase Reaction consisted of 3.5-26 ng p110 gamma and 50 μM PIP2:PS in 32.5 mM HEPES pH 7.5, 0.5 mM EGTA, 1.5 mM mgCl2. After the 1 hour Kinase Reaction incubation, 5 μL of Detection Mix was added.
The Detection mix consisted of EDTA (30 mM), Eu-anti-ADP antibody (30 nM) and ADP tracer. All ATP Solutions were diluted to a 4× working concentration in water and used at the Km apparent concentrations for each individual kinase.

The target of the next test is T2, PI3Kα (Mus musculus, UniProt P42337).
T2 construct: endogenous in cells; host or cells: Swiss-3T3 fibroblasts (ATCC)
T2 sequence (P42337 whole entry): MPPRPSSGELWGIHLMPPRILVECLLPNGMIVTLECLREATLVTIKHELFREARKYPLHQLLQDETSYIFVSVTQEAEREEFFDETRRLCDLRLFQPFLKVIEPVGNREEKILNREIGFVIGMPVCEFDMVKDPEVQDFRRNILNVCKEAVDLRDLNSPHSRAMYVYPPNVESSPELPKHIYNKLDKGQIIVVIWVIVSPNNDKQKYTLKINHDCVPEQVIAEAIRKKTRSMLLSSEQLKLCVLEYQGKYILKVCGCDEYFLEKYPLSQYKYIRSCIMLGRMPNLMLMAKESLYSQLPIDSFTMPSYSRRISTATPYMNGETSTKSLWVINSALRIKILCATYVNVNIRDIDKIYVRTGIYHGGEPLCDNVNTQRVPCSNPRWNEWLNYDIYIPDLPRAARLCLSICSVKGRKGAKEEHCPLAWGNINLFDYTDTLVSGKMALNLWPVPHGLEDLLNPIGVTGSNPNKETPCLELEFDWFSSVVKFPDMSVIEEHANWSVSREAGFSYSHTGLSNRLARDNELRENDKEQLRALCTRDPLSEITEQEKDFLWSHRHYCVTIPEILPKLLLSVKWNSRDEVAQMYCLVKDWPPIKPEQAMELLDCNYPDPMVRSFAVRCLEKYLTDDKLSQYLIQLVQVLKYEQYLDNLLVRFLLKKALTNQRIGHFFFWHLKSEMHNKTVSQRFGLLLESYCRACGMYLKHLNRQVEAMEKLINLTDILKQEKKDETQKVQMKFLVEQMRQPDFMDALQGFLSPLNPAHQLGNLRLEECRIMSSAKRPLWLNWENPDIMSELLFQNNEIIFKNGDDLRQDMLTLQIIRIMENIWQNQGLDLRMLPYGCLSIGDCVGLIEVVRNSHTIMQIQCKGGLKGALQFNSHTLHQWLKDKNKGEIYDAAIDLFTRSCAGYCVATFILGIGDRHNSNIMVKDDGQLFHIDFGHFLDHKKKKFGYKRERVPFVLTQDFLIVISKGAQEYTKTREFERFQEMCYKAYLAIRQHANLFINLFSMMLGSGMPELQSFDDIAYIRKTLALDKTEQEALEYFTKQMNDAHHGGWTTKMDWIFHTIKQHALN
T2 sequence (P26450 whole entry partner): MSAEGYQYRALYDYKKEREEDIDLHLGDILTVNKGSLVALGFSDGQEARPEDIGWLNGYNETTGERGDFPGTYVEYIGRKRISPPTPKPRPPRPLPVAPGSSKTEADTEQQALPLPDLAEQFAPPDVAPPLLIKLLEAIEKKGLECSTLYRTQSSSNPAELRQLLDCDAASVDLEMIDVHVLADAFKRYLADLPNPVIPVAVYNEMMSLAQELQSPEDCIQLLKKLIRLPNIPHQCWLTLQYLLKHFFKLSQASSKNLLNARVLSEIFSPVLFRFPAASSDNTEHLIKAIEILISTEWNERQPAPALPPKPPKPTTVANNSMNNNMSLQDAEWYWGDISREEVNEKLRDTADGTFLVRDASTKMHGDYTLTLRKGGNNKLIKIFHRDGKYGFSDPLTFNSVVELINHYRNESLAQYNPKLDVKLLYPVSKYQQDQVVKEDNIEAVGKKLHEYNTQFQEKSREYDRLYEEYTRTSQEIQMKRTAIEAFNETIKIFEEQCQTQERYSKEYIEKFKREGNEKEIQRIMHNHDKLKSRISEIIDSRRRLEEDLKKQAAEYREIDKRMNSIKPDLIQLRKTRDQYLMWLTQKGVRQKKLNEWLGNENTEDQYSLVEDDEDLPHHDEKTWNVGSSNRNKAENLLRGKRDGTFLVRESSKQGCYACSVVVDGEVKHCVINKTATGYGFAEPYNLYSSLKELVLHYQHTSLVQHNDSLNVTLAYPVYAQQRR
The experiment in a line: PI3Kα-dependent cell-based assay: PDGF-BB mediated AKT phosphorylation in Swiss-3T3 cells. To be noted: PDGF-BB-induced AKT phosphorylation, Swiss-3T3 fibroblasts. As to the method: PDGF-BB-induced AKT phosphorylation in Swiss-3T3 fibroblasts is mediated by p110α. C5a-induced AKT phosphorylation in RAW-264 murine macrophages is mediated exclusively by p110γ.
PI3Kα-Dependent Cell-Based Assay: PDGF-BB Mediated AKT Phosphorylation in Swiss-3T3 Cells
Swiss-3T3 fibroblasts (American Type Culture Collection) were cultured with DMEM containing 10% fetal bovine serum and the antibiotics penicillin and streptomycin. Cells were seeded on a 96-well Tissue Culture Plate at 25,000 cells/well and allowed to reach at least 90% confluency. The cells were starved for 2 to 12 hr in 0.1% FBS containing medium and then were pretreated with inhibitors or DMSO for 2 hr. The cells were stimulated for 15 min with 10 ng/ml PDGF-BB (Cell Signaling Technology) at 37° C. in 5% CO2. The culture medium was removed and cells were fixed for 20 min at room temperature by addition of 100 μl of 4% cell fixing buffer to each well. AKT phosphorylation and total AKT was detected by ELISA.
Detection of Phospho-Ser-473 AKT and Total AKT by ELISA
The fixed cells were washed twice with 150 μl of wash buffer (WB) and quenched by incubating with 100 μl of Quenching Buffer for 20 min at room temperature. Cells were washed once with 150 μl WB and blocked by incubating with 100 μl of Blocking Buffer for 1 hr at room temperature. Cells were incubated with 50 μl of primary antibody diluted in Blocking Buffer, either phospho-Ser-473 AKT specific (1:150 dilution) or total-AKT antibody (1:200 dilution), to each specific well. The negative control wells contained 50 μl of Blocking Buffer. Plates were sealed with plate sealing film and incubated overnight at 4° C. Cells were washed twice with 150 μl WB followed by addition of 50 μl per well of DELFIA secondary antibody (50 ng/well, diluted in DELFIA Assay Buffer). After 2 hr incubation at room temperature, cells were washed 4 times with 150 μl of Europium Wash Solution followed by addition of 100 μl of DELFIA Enhancing Solution to each well. Plates were incubated for 5 min in the dark and fluorescent signal was read using SpectraMax M5™ (Molecular Devices). Total AKT level was determined to verify equal cell number per well. The average background fluorescence values from wells that received vehicle control in the absence of PDGF-BB or C5a were subtracted from all the values of experimental conditions. Fluorescence values corresponding to phosphorylated AKT from wells that received PDGF-BB or C5a were normalized to 100% and compound effect was plotted as % change relative to the vehicle control.

T1 sequence (P48736 whole entry): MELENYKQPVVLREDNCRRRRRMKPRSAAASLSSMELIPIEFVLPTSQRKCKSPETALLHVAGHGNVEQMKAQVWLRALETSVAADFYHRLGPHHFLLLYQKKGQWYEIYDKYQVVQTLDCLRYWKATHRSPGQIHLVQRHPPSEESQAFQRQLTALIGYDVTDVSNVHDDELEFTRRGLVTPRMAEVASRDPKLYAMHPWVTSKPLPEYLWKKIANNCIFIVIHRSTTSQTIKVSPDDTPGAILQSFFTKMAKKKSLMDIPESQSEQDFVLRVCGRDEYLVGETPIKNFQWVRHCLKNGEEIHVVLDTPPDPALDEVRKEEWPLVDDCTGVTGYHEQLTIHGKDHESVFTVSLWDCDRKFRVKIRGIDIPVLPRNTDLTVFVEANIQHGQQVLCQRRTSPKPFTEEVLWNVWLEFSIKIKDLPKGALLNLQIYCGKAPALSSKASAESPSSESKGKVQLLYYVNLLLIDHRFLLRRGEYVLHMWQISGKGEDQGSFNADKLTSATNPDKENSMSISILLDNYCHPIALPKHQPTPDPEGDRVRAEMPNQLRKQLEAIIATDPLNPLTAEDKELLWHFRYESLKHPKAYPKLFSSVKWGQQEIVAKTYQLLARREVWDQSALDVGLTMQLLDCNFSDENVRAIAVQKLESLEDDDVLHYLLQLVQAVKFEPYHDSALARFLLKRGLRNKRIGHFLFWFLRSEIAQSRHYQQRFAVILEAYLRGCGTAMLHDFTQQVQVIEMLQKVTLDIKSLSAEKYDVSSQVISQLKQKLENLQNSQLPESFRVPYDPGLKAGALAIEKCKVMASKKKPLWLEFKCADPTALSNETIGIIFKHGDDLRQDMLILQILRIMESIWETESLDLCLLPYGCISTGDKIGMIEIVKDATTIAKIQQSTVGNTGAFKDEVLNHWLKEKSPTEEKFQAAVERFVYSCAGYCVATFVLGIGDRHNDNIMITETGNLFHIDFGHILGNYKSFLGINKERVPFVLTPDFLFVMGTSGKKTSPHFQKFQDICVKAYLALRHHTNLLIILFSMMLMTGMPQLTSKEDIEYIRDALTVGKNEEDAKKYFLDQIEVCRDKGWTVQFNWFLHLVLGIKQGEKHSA

Consider `CC(Nc1ncnc2[nH]cnc12)c1nc2ccccc2nc1-c1ccccc1` (centres unmarked) [Compound Q1], for which, at PI3Kγ (p110 gamma) (read-out: PI3Kγ % inhib), the inhibition at 1 µM was 78% and the inhibition at 10 µM worked out at 99%. In addition, the IC50 on PI3Kγ (p110 gamma) came out at 147 nM. The molecule also registered an EC50 at PI3Kα above 20000 nM.
On the same counts, the results for `CC(Nc1ncnc2[nH]cnc12)c1nc2ccccc2nc1-c1cc(F)cc(F)c1` (centres unmarked) [Compound Q2, N-{1-[3-(3,5-difluorophenyl)quinoxalin-2-yl]ethyl}-9H-purin-6-amine] are 42%, 86%, 5790 nM and above 20000 nM.
As to `Cc1cccc(-c2nc3ccccc3nc2C(C)Nc2ncnc3[nH]cnc23)c1` (centres unmarked) [Compound Q3], at PI3Kγ (p110 gamma) (read-out: PI3Kγ % inhib), the inhibition at 1 µM was 51% and the inhibition at 10 µM came to 94%. Also, the IC50 at PI3Kγ (p110 gamma) was 2070 nM. Besides, the EC50 on PI3Kα was above 20000 nM.
Consider `Cc1cccc2nc(C(C)Nc3nc(N)nc4[nH]cnc34)c(-c3ccccc3)nc12` (centres unmarked) [Compound Q4], for which the inhibition at 0.1 µM on PI3Kγ (p110 gamma) (0.1 μM, read-out: PI3Kγ % inhib) amounted to 36%. Besides, on PI3Kγ (p110 gamma) (read-out: PI3Kγ % inhib), the inhibition at 1 µM was determined as 84% and the inhibition at 10 µM worked out at 99%. Besides, on PI3Kγ (p110 gamma), the IC50 worked out at 8 nM. Besides, at PI3Kα, the EC50 came to 17700 nM.
Turning to `Cc1cccc2nc(C(C)Nc3nc(N)nc4[nH]cnc34)c(-c3ccc(F)cc3)nc12` (centres unmarked) [Compound Q5], at PI3Kγ (p110 gamma) (read-out: PI3Kγ % inhib), the inhibition at 1 µM came out at 79% and the inhibition at 10 µM amounted to 98%. Also, the IC50 on PI3Kγ (p110 gamma) stood at 2 nM. This molecule also returned an EC50 at PI3Kα of 14300 nM.
On the same counts, the results for `CCC(Nc1ncnc2[nH]cnc12)c1nc2cccc(F)c2nc1-c1ccccc1` (centres unmarked) [Compound Q9] are 37%, 95%, 2150 nM and above 20000 nM.
Turning to `CCC(Nc1ncnc2[nH]cnc12)c1nc2ccccc2nc1-c1ccccc1` (centres unmarked) [Compound Q12], at PI3Kγ (p110 gamma) (read-out: PI3Kγ % inhib), the inhibition at 1 µM was 44% and the inhibition at 10 µM amounted to 96%. Further, the IC50 at PI3Kγ (p110 gamma) was found to be 762 nM. Moreover, the EC50 on PI3Kα was above 20000 nM.
